According to ChEMBL document CHEMBL1130719, “Synthesis of 6(alpha, beta)-aminocholestanols as ergosterol biosynthesis inhibitors” (Bioorg Med Chem Lett, 1998):

Assays:
Assay type in all cases: functional, organism-based; call rule not given here
Saccharomyces cerevisiae [1] = assay: Compound was tested for growth inhibition against Saccharomyces cerevisiae (ATCC 28383)
Candida albicans [2] = assay: Compound was tested for growth inhibition against Candida albicans (CIP 1180.79)
Candida albicans [3] = assay: Compound was tested for growth inhibition against Candida albicans (CIP 1180.79); Slow development (>80-<100 uM)
Saccharomyces cerevisiae [4] = assay: Compound was tested for growth inhibition against Saccharomyces cerevisiae (ATCC 28383); Slow development (>80-<100 uM)
Saccharomyces cerevisiae [5] = assay: Compound was tested for growth inhibition against Saccharomyces cerevisiae (ATCC 28383); Inactive over 250 uM
Candida albicans [6] = assay: Compound was tested for growth inhibition against Candida albicans (CIP 1180.79); Inactive over 250 uM

In the case of `CC(C)CCC[C@@H](C)C1CC[C@H]2[C@@H]3C[C@H](N)[C@H]4C[C@@H](O)CC[C@]4(C)[C@H]3CC[C@]12C` (some centres not stated), the IC50 (Saccharomyces cerevisiae [1]) is reported as < 15 µM and the IC50 (Candida albicans [2]) is reported as < 31 µM.
For `CC(C)CCC[C@@H](C)C1CC[C@H]2[C@@H]3C[C@@H](N)C4C[C@@H](O)CC[C@]4(C)[C@H]3CC[C@]12C` (some centres not stated), the IC50 (Saccharomyces cerevisiae [1]) was < 15 µM and the IC50 (Candida albicans [2]) was < 7 µM.
With `CC(=O)N[C@H]1C[C@@H]2[C@H](CC[C@]3(C)C([C@H](C)CCCC(C)C)CC[C@@H]23)[C@@]2(C)CC[C@H](O)C[C@H]12` (some centres not stated) the IC50 (Candida albicans [3]) was > 80 µM and the IC50 (Saccharomyces cerevisiae [4]) was > 80 µM.
In the case of `CC(=O)N[C@@H]1C[C@@H]2[C@H](CC[C@]3(C)C([C@H](C)CCCC(C)C)CC[C@@H]23)[C@@]2(C)CC[C@H](O)C[C@H]12` (some centres not stated), the IC50 (Candida albicans [3]) is reported as > 80 µM and the IC50 (Saccharomyces cerevisiae [4]) is reported as > 80 µM.
`CC(C)CCC[C@@H](C)C1CC[C@H]2[C@@H]3C[C@H]([N+](=O)[O-])[C@H]4C[C@@H](O)CC[C@]4(C)[C@H]3CC[C@]12C` (some centres not stated) was tested, and the IC50 (Saccharomyces cerevisiae [5]) was “Not Active” and the IC50 (Candida albicans [6]) was “Not Active”.
In the case of `CC(C)CCC[C@@H](C)C1CC[C@H]2[C@@H]3C[C@@H]([N+](=O)[O-])[C@H]4C[C@@H](O)CC[C@]4(C)[C@H]3CC[C@]12C` (some centres not stated), the IC50 (Saccharomyces cerevisiae [5]) is reported as “Not Active” and the IC50 (Candida albicans [6]) is reported as “Not Active”.
